Like-named read-outs stand apart in the source and are kept apart here.
Assays:
[1] = system: P. falciparum D10 (CQ-sensitive) strain; assay: P. falciparum drug susceptibility assay (pLDH), CQ-sensitive strain D10; assay type: cell-based; settings: for IC50: Plasmodium falciparum; for SID10: IC50(NHDF)/IC50(D10)
Procedure: (§1) P. falciparum cultures were prepared and maintained according to the method of Trager and Jensen, with slight modifications. […] Serial dilutions of the compounds were prepared in 96-well flat-bottomed microplates. […] Parasite growth was determined spectrophotometrically (OD650) by measuring the activity of parasite lactate dehydrogenase (pLDH), according to a modified version of the method of Makler and Hinrichs, in control and compound-treated cultures.

[2] = system: P. falciparum W2 (CQ-resistant) strain; assay: P. falciparum drug susceptibility assay (pLDH), CQ-resistant strain W2; assay type: cell-based; settings: for IC50: Plasmodium falciparum, read-out: P. falciparum IC50 W2; for SIW2: IC50(NHDF)/IC50(W2)
Procedure: as §1

[3] = system: NHDF cells (normal human dermal fibroblasts); settings: read-out: Cytotoxicity IC50, MTT; cited from earlier work
[4] = MTT cytotoxicity assay on NHDF cells; assay type: cell-based; settings: human, NHDF cells (normal human dermal fibroblasts)
Procedure: NHDF cells were grown in alpha-MEM medium supplemented likewise with 10% FBS, L-glutamine, and antibiotic-antimycotic. Cultures were maintained at 37°C, in a humidified Innova CO-180 incubator (New Brunswick Scientific, Edison, NJ, USA) in an atmosphere containing 5% CO2. The cytotoxic effects of CA derivatives were evaluated as described in literature using the standard MTT assay. Briefly, NHDF cells were seeded in a 96-well plate at a density of 5 × 10^3 cells per well in an alpha-MEM medium. Cells were grown overnight and subsequently exposed to the different concentrations of tested compounds dissolved in DMSO. An equivalent volume of DMSO was used as a negative control. After 72 h of incubation, media containing the test compounds were removed, the cells were washed with sterile PBS, and 50 μL of MTT solution (0.5 mg/mL stock solution was 10 times diluted in the appropriate culture medium) was added to each well for 3 h at 37°C. Subsequently, the MTT solution was removed, the formazan crystals were solubilized in DMSO, and absorbance was recorded using an Asys UVM 340 multiwell plate reader (Cambridge, UK) at 560 nm with a reference wavelength of 670 nm. The % of cell viability was calculated using the following formula: Cell viability (%) = (AT/AC) × 100, where AT is the absorbance of the treatment well (treated cells) and AC is the absorbance of the control well (not treated cells). GraphPad Prism software for Windows (GraphPad Software, La Jolla, CA, USA) was used to calculate IC50 values.

[5] = Hemolytic activity against human erythrocytes; assay type: cell-based; settings: freshly isolated human red blood cells (erythrocytes), PBS, 37°C
Procedure: Hemolytic activity was measured as described by Jaromin et al. Compounds 3 and 4, dissolved in DMSO, were added in a volume corresponding to a final concentration of 12.5 μM and then incubated with freshly isolated human red blood cells in PBS buffer at 37°C for 30 min. After centrifugation, the absorbance was determined at 540 nm, to assess the released hemoglobin. In addition, negative (erythrocytes in PBS buffer), positive (erythrocytes in distilled water), and DMSO controls were also performed. The study protocol was approved by the Bioethics Commission at the Lower Silesian Medical Chamber (1/PNHAB/2018).

[6] = system: P. berghei; parameters: method as in PMID 30033538; settings: 100 mg/kg, in vivo; cited from earlier work
[7] = D10 CQ-sensitive strain, 72 h, pLDH, mean ± SD, read-out: P. falciparum IC50 D10
[8] = W2 CQ-resistant strain, 72 h, pLDH, mean ± SD
[9] = strain not given (D10 and/or W2), read-out: P. falciparum IC50

Compound	IC50 [1, 7] [µM]	IC50 [2, 8] [µM]	SID10 [1]	IC50 ([1]; D10, 72 h, read-out: P. falciparum IC50 D10) [µM]	SIW2 [2]	IC50 ([2]; W2, 72 h) [µM]	IC50 [3] [µM]	RI (resistance index) ([2]; ratio IC50 W2 / IC50 D10)	IC50 at 72 h [4] [µM]	melting point [°C]	IC50 [1, 9] [µM]	hemolysis at 30 min, 12.5 µM [5] [%]	fold decrease of IC50 versus compound 1 ([2]; CQ-resistant strain, 4 compared with 1) [times]	P. berghei inhibition growth [6] [%]
O=C(O)/C=C/c1ccc(O)c(O)c1 [CA, (E)-3-(3,4-dihydroxyphenyl)prop-2-enoic acid, reference compound]	> 278	> 278												
CCN(CC)CCCC(C)Nc1ccnc2cc(Cl)ccc12 (centres unmarked) [CQ, chloroquine, reference compound]			2047.5	0.02 ± 0.01	178.04	0.23 ± 0.08	41 ± 2.29							
CC(C)(C)OC(=O)/C=C/c1ccc(O)cc1O [Compound 1, tert-Butyl (2E)-3-(2,4-Dihydroxyphenyl)-propenoate]	28.6 ± 1.94	86.4 ± 27.4	8.73		2.89			3.02	249.8 ± 0.51					
CCOC(=O)/C=C/c1ccc(O)c(O)c1O [Compound 2, Ethyl (2E)-3-(2,3,4-Trihydroxyphenyl)-propenoate]	42.1 ± 9.12	38.8 ± 17.8	2.74		2.98				115 ± 1.76	172 to 173				
CCOC(=O)/C(C)=C/c1ccc(O)c(O)c1O [Compound 3, Ethyl (2E)-3-(2,3,4-Trihydroxyphenyl)-2-methylpropenoate]	12.7 ± 2.33	11.3 ± 4.81	6.23		7.02				79.2 ± 6.14	140	11 to 12.7	4.13 ± 0.85		
CC(C)(C)OC(=O)/C=C/c1ccc(O)c(O)c1O [Compound 4, tert-Butyl (2E)-3-(2,3,4-Trihydroxyphenyl)-propenoate]	12.2 ± 4.9	11 ± 4.88	7.42		8.24				90.3 ± 10.3	175	11 to 12.7	52.9 ± 2.93	7.9	
CCOC(=O)/C(C)=C/c1ccc(O)c(F)c1 [Compound 5, Ethyl (2E)-3-(3-Fluoro-4-hydroxyphenyl)-2-methylpropenoate]	145 ± 53.6	131 ± 52.7									117			
CC(C)(C)OC(=O)/C=C/c1ccc(O)c(F)c1 [Compound 6, tert-Butyl (2E)-3-(3-Fluoro-4-hydroxyphenyl)-propenoate]	129 ± 59.6	117 ± 35.9	1.77		1.95				229 ± 7.57	88.3	145			
CCOC(=O)/C=C/c1ccc(O)c(O)c1 [Ethyl caffeate]														55

Reference: article PMC10691883, “Efficient One-Pot Synthesis of Novel Caffeic Acid Derivatives as Potential Antimalarials” (Journal of Parasitology Research, 2023)
